Source: US20240415819A1, “MACROCYCLIC COMPOUNDS AS PROTEASOME SUBUNIT BETA TYPE-5 INHIBITORS” (Lead Discovery Center GmbH, priority 2021, published 2024)

System: hPMBC
Test: Chymotrypsin-like ProteasomeGlo assay in hPBMC
Assay type: cell-based
Details: Homo sapiens; read-out: Pglo hPBMC
Summary of the method: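 IC50 derived from luminescent chymotrypsin-like proteasome activity (Suc-LLVY-Glo substrate plus luciferin detection reagent). Measured after 105 min compound exposure at 37 °C, 5% CO2. Cells were human B cells purified from buffy-coat PBMC.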

| Structure (SMILES) | IC50 |
| --- | --- |
| Cc1ccc2cc1CNC(=O)[C@H](CCc1ccccc1)NC(=O)[C@@H](NC(=O)OCc1ccccc1)CC(=O)N1CCCC3(CC(C3)O2)C1 [Compound 300] | 500 to 1000 nM |
| Cc1ccc2cc1CNC(=O)[C@H](CCc1ccccc1)NC(=O)[C@@H](NC(=O)OCc1ccccc1)CCCC(=O)NCCCCO2 [Compound 322, benzyl ((12S,15S)-1^4-methyl-8,13, 16-trioxo-15-phenethyl-2-oxa-7,14,17-triaza-1(1,3)-benzenacyclooctadecaphane-12-yl)carbamate] | 500 to 1000 nM |
| Cc1ccc2cc1CNC(=O)[C@H](CCc1ccccc1)NC(=O)[C@@H](NC(=O)Cc1nc(-c3ccncc3)n[nH]1)CC(=O)N1CCCC(CCO2)C1 (stereo partly drawn) [Compound 329, N-((9S,12S)-5^4-methyl-8,11,14-trioxo-9-phenethyl-4-oxa-7,10-diaza-1(3,1)-piperidina-5(1,3)-benzenacyclotetradecaphane-12-yl)-2-(3-(pyridin-4-yl)-1H-1,2,4-triazol-5-yl)acetamide] | 100 to 500 nM |
| Cc1ccc2cc1CNC(=O)C(CCc1ccccc1)NC(=O)[C@@H](NC(=O)OCc1ccccc1)CC(=O)N1CCCC(CCO2)C1 (stereo partly drawn) [Compound 503, benzyl ((12S)-9-phenethyl-5^4-methyl-8,11,14-trioxo-4-oxa-7,10-diaza-1(3,1)-piperidina-5(1,3)-benzenacyclotetradecaphane-12-yl)carbamate] | 100 to 500 nM |
| CC(=O)N[C@H]1CC(=O)N(C)CCCCOc2ccc(C)c(c2)CNC(=O)[C@H](CCc2ccccc2)NC1=O [Compound 296, N-(1^4,7-dimethyl-8,11,14-trioxo-13-phenethyl-2-oxa-7,12,15-triaza-1(1,3)-benzenacyclohexadecaphane-10-yl)acetamide] | 100 to 500 nM |
| CC(=O)N[C@H]1CCCC(=O)N(C)CCCCOc2ccc(C)c(c2)CNC(=O)[C@H](CCc2ccccc2)NC1=O [Compound 295, N-(1^4,7-dimethyl-8,13,16-trioxo-15-phenethyl-2-oxa-7,14,17-triaza-1(1,3)-benzenacyclooctadecaphane-12-yl)acetamide] | 100 to 500 nM |
| Cc1ccc2cc1CNC(=O)[C@H](CCc1ccccc1)NC(=O)[C@@H](NC(=O)CC(C)(C)C)CC(=O)N1CCCC(CCO2)C1 (stereo partly drawn) [Compound 28, 3,3-dimethyl-N-((9S,12S)-5^4-methyl-8,11,14-trioxo-9-phenethyl-4-oxa-7,10-diaza-1(3,1)-piperidina-5(1,3)-benzenacyclotetradecaphane-12-yl)butanamide] | 100 to 500 nM |
| Cc1nc(C2NC(=O)[C@@H](NC(=O)OCc3ccccc3)CC(=O)N3CCCC(CCOc4ccc(C)c(c4)CNC2=O)C3)co1 (stereo partly drawn) [Compound 512, benzyl ((12S)-5^4-methyl-9-(2-methyloxazol-4-yl)-8,11,14-trioxo-4-oxa-7,10-diaza-1(3,1)-piperidina-5(1,3)-benzenacyclotetradecaphane-12-yl)carbamate] | < 100 nM |
| CC(=O)N[C@H]1CC(=O)N2CCCC(CCOc3ccc(C)c(c3)CNC(=O)C(c3cn[nH]c3)NC1=O)C2 (stereo partly drawn) [Compound 562, N-((12S)-5^4-methyl-8,11,14-trioxo-9-(1H-pyrazol-4-yl)-4-oxa-7,10-diaza-1(3,1)-piperidina-5(1,3)-benzenacyclotetradecaphane-12-yl)acetamide] | < 100 nM |
| Cc1ccc2cc1CNC(=O)C(CCc1cnc3cccnc3c1)NC(=O)[C@@H](NC(=O)OCc1ccccc1)CC(=O)N1CCCC(CCO2)C1 (stereo partly drawn) [Compound 511, benzyl ((12S)-9-(2-(1,5-naphthyridin-3-yl)ethyl)-5^4-methyl-8,11,14-trioxo-4-oxa-7,10-diaza-1(3,1)-piperidina-5(1,3)-benzenacyclotetradecaphane-12-yl)carbamate] | < 100 nM |
| Cc1ccc2cc1CNC(=O)C(CCc1ccncc1)NC(=O)[C@@H](NC(=O)C1(c3ccc(N)cc3)CC1)CC(=O)N1CCCC(CCO2)C1 (stereo partly drawn) [Compound 343, 1-(4-aminophenyl)-N-((12S)-5^4-methyl-8,11,14-trioxo-9-(2-(pyridin-4-yl)ethyl)-4-oxa-7,10-diaza-1(3,1)-piperidina-5(1,3)-benzenacyclotetradecaphane-12-yl)cyclopropane-1-carboxamide] | < 100 nM |

Next, values leading:

| IC50 | Structure (SMILES) |
| --- | --- |
| < 100 nM | Cc1ccc2cc1CNC(=O)[C@H](CCc1ccccc1)NC(=O)[C@@H](NC(=O)C(C)c1ccc(N)cc1)CC(=O)N1CCCC(CCO2)C1 (stereo partly drawn) [Compound 309, 2-(4-aminophenyl)-N-((9S,12S)-5^4-methyl-8,11,14-trioxo-9-phenethyl-4-oxa-7,10-diaza-1(3,1)-piperidina-5(1,3)-benzenacyclotetradecaphane-12-yl)propanamide] |
| < 100 nM | Cc1ccc2cc1CNC(=O)[C@H](CCc1ccccc1)NC(=O)[C@@H](NC(=O)OCc1ccccc1)CC(=O)N1CCCC(CCO2)C1 (stereo partly drawn) [Compound 7, benzyl ((9S,12S)-5^4-methyl-8,11,14-trioxo-9-phenethyl-4-oxa-7,10-diaza-1(3,1)-piperidina-5(1,3)-benzenacyclotetradecaphane-12-yl)carbamate] |
| < 100 nM | Cc1ccc2cc1CNC(=O)C(CCc1ccncc1)NC(=O)[C@@H](NC(=O)Cc1ccc(N)cc1F)CC(=O)N1CCCC(CCO2)C1 (stereo partly drawn) [Compound 344, 2-(4-amino-2-fluorophenyl)-N-((12S)-5^4-methyl-8,11,14-trioxo-9-(2-(pyridin-4-yl)ethyl)-4-oxa-7,10-diaza-1(3,1)-piperidina-5(1,3)-benzenacyclotetradecaphane-12-yl)acetamide] |
| < 100 nM | Cc1ccc2cc1CNC(=O)C(c1cnn(C)c1)NC(=O)CCCCC(=O)N1CCCC(CCO2)C1 (stereo not shown) [Compound 356, 5^4-methyl-9-(1-methyl-1H-pyrazol-4-yl)-4-oxa-7,10-diaza-1(3,1)-piperidina-5(1,3)-benzenacyclohexadecaphane-8,11,16-trione] |
| < 100 nM | Cc1cc2cc(c1C)CNC(=O)C(c1cnn(C)c1)NC(=O)CCC(=O)N1CCCC(CCO2)C1 (stereo not shown) [Compound 355, 5^4,5^5-dimethyl-9-(1-methyl-1H-pyrazol-4-yl)-4-oxa-7,10-diaza-1(3,1)-piperidina-5(1,3)-benzenacyclotetradecaphane-8,11,14-trione] |
| < 100 nM | CC(=O)N[C@H]1CC(=O)N2CCCC(CCOc3cccc(c3)CNC(=O)[C@H](CCc3ccccc3)NC1=O)C2 (stereo partly drawn) [Compound 364, N-((9S,12S)-8,11,14-trioxo-9-phenethyl-4-oxa-7,10-diaza-1(3,1)-piperidina-5(1,3)-benzenacyclotetradecaphane-12-yl)acetamide] |
| < 100 nM | CC(=O)N[C@H]1CC(=O)N2CCCC(CCOc3ccc(C)c(c3)CNC(=O)C(CCc3nccs3)NC1=O)C2 (stereo partly drawn) [Compound 563, N-((12S)-5^4-methyl-8,11,14-trioxo-9-(2-(thiazol-2-yl)ethyl)-4-oxa-7,10-diaza-1(3,1)-piperidina-5(1,3)-benzenacyclotetradecaphane-12-yl)acetamide] |
| < 100 nM | Cc1n[nH]c(CC(=O)N[C@H]2CC(=O)N3CCCC(CCOc4ccc(C)c(c4)CNC(=O)[C@H](CCc4ccccc4)NC2=O)C3)n1 (stereo partly drawn) [Compound 332, 2-(3-methyl-1H-1,2,4-triazol-5-yl)-N-((9S,12S)-5^4-methyl-8,11,14-trioxo-9-phenethyl-4-oxa-7,10-diaza-1(3,1)-piperidina-5(1,3)-benzenacyclotetradecaphane-12-yl)acetamide] |
